Laboratory results reported in PubChem BioAssay AID248 (DTP/NCI, 2004).
“And” between values parts separate entries of the source, which are not always exact repeats. Identical values can stand only once. Toxic doses and inconclusive results are not listed. No stated cut-off is given here; in the data, active means T/C of 150% or more; inactive means T/C below 125%. Square brackets hold non-standard residues; d marks the D form. Peptide text beside a SMILES is read from it. * marks the point of attachment. NMeY = CN[CH](Cc1ccc(O)cc1)C(=O)O; Bn = c1ccc(C*)cc1

Tested on: L1210 leukemia ip in BDF1 mice, survival T/C
Assay: NCI In Vivo Anticancer Drug Screen. Data for tumor model L1210 Leukemia (intraperitoneal) in B6D2F1 (BDF1) mice
Conditions: endpoint: mean survival time, higher = longer survival
How it was run: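 Transplanted-tumor mice were given test agent; controls received vehicle only. Survival readings from the two groups were divided (treated over control).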

[1] = dose: 100.0 mg/kg/injection, schedule: Q01DX009 (ip), vehicle: Klucel (hydroxypropylcellulose) (HPC)
[2] = dose: 200.0 mg/kg/injection, schedule: Q01DX009 (ip), vehicle: Klucel (hydroxypropylcellulose) (HPC)
[3] = dose: 400.0 mg/kg/injection, schedule: Q01DX009 (ip), vehicle: Klucel (hydroxypropylcellulose) (HPC)
[4] = dose: 100.0 mg/kg/injection, schedule: Q01DX001 (ip), vehicle: Klucel (hydroxypropylcellulose) (HPC)
[5] = dose: 200.0 mg/kg/injection, schedule: Q01DX001 (ip), vehicle: Klucel (hydroxypropylcellulose) (HPC)
[6] = dose: 400.0 mg/kg/injection, schedule: Q01DX001 (ip), vehicle: Klucel (hydroxypropylcellulose) (HPC)
[7] = dose: 50.0 mg/kg/injection, schedule: Q01DX001 (ip), vehicle: saline
[8] = dose: 50.0 mg/kg/injection, schedule: Q01DX009 (ip), vehicle: saline
[9] = dose: 100.0 mg/kg/injection, schedule: Q01DX001 (ip), vehicle: saline
[10] = dose: 100.0 mg/kg/injection, schedule: Q01DX009 (ip), vehicle: saline
[11] = dose: 200.0 mg/kg/injection, schedule: Q01DX001 (ip), vehicle: saline
[12] = dose: 400.0 mg/kg/injection, schedule: Q01DX001 (ip), vehicle: saline
[13] = dose: 100.0 mg/kg/injection, schedule: Q04DX003 (ip), vehicle: saline with Tween-80
[14] = dose: 200.0 mg/kg/injection, schedule: Q04DX003 (ip), vehicle: saline with Tween-80
[15] = dose: 100.0 mg/kg/injection, schedule: Q01DX001 (ip), vehicle: carboxymethylcellulose (CMC)
[16] = dose: 50.0 mg/kg/injection, schedule: Q01DX001 (ip), vehicle: carboxymethylcellulose (CMC)
[17] = dose: 200.0 mg/kg/injection, schedule: Q01DX001 (ip), vehicle: carboxymethylcellulose (CMC)
[18] = dose: 400.0 mg/kg/injection, schedule: Q01DX001 (ip), vehicle: carboxymethylcellulose (CMC)
[19] = dose: 100.0 mg/kg/injection, schedule: Q04DX003 (ip), vehicle: saline
[20] = dose: 200.0 mg/kg/injection, schedule: Q04DX003 (ip), vehicle: saline
[21] = dose: 400.0 mg/kg/injection, schedule: Q04DX003 (ip), vehicle: saline

Measured: T/C

CC(C)(c1ccccc1)[N+](C)(C)C
inactive: dose: 4.0 mg/kg/injection, schedule: Q01DX Z (ip), vehicle: saline 93 % of control | dose: 6.25 mg/kg/injection, schedule: Q01DX009 (ip), vehicle: saline 97 % of control | dose: 6.25 mg/kg/injection, schedule: Q04DX003 (ip), vehicle: saline 104 % of control | dose: 8.0 mg/kg/injection, schedule: Q01DX Z (ip), vehicle: saline 96 % of control | dose: 12.5 mg/kg/injection, schedule: Q01DX009 (ip), vehicle: saline 91 % of control | dose: 12.5 mg/kg/injection, schedule: Q04DX003 (ip), vehicle: saline 103 % of control | dose: 16.0 mg/kg/injection, schedule: Q01DX Z (ip), vehicle: saline 92 % of control | dose: 25.0 mg/kg/injection, schedule: Q01DX009 (ip), vehicle: saline 92 % of control | dose: 25.0 mg/kg/injection, schedule: Q04DX003 (ip), vehicle: saline 91 % of control

CCCCCCC(O)CCCCCCCCCCCO (stereo unspecified)
inactive: [1] 108 % of control | [2] 97 % of control | [3] 103 % of control

O=C(CCCCCCCCC(=O)c1ccc2ccccc2c1O)c1ccc2ccccc2c1O
inactive: [4] 87 % of control | [1] 94 % of control | [5] 89 % of control | [2] 91 % of control | [6] 105 % of control | [3] 96 % of control

N#CCCOCC(COCCC#N)OCCC#N
inactive: [7] 106 % of control | [8] 124 % of control | [9] 108 % of control | [10] 108 % of control | [11] 101 % of control | [12] 92 % of control

Cc1cccc(Cl)c1NC(=O)Nc1ccc(CCO)cc1
inactive: [1] 103 % of control | [2] 97 % of control | [3] 94 % of control

COc1ccc(/C=N\NC(=O)c2ccccc2)cc1
inactive: [13] 102 % of control | [14] 103 % of control | dose: 400.0 mg/kg/injection, schedule: Q04DX003 (ip), vehicle: saline with Tween-80 92 % of control

Cc1ccc(C)c(OC(=O)Nc2cccc(C(F)(F)F)c2)c1
inactive: [4] 104 % of control | [1] 93 % of control and 110 % of control | dose: 100.0 mg/kg/injection, schedule: Q04DX002 (ip), vehicle: Klucel (hydroxypropylcellulose) (HPC) 105 % of control | dose: 100.0 mg/kg/injection, schedule: Q04DX003 (ip), vehicle: Klucel (hydroxypropylcellulose) (HPC) 92 % of control | [5] 98 % of control | [2] 96 % of control and 109 % of control | dose: 200.0 mg/kg/injection, schedule: Q04DX002 (ip), vehicle: Klucel (hydroxypropylcellulose) (HPC) 99 % of control and 115 % of control | dose: 200.0 mg/kg/injection, schedule: Q04DX003 (ip), vehicle: Klucel (hydroxypropylcellulose) (HPC) 97 % of control | [6] 100 % of control | [3] 101 % of control and 86 % of control | dose: 400.0 mg/kg/injection, schedule: Q04DX002 (ip), vehicle: Klucel (hydroxypropylcellulose) (HPC) 101 % of control and 105 % of control | dose: 400.0 mg/kg/injection, schedule: Q04DX003 (ip), vehicle: Klucel (hydroxypropylcellulose) (HPC) 103 % of control

O=C(OC1CCC2CC21)c1ccc([N+](=O)[O-])cc1[N+](=O)[O-] (stereo unspecified)
inactive: [4] 98 % of control | [5] 95 % of control | [6] 106 % of control

Cc1ccc2c(c1)N(CCCN1CC[N+](C)(C)CC1)c1ccccc1S2
inactive: dose: 10.0 mg/kg/injection, schedule: Q01DX001 (ip), vehicle: saline 101 % of control | dose: 20.0 mg/kg/injection, schedule: Q01DX001 (ip), vehicle: saline 95 % of control | dose: 40.0 mg/kg/injection, schedule: Q01DX001 (ip), vehicle: saline 98 % of control | dose: 80.0 mg/kg/injection, schedule: Q01DX001 (ip), vehicle: saline 98 % of control

CCOC(=O)C(Cc1csc2ccccc12)(NC(C)=O)C(=O)OCC
inactive: dose: 44.4 mg/kg/injection, schedule: Q01DX001 (ip), vehicle: carboxymethylcellulose (CMC) 93 % of control and 94 % of control | dose: 66.7 mg/kg/injection, schedule: Q01DX001 (ip), vehicle: carboxymethylcellulose (CMC) 93 % of control and 94 % of control | [15] 94 % of control and 98 % of control | dose: 150.0 mg/kg/injection, schedule: Q01DX001 (ip), vehicle: carboxymethylcellulose (CMC) 101 % of control and 91 % of control

CCOC(=O)C1C(c2ccccc2)C1c1ccc(C)cc1 (stereo unspecified)
inactive: dose: 25.0 mg/kg/injection, schedule: Q04DX002 (ip), vehicle: saline with Tween-80 103 % of control | dose: 50.0 mg/kg/injection, schedule: Q04DX002 (ip), vehicle: saline with Tween-80 103 % of control | dose: 100.0 mg/kg/injection, schedule: Q04DX002 (ip), vehicle: saline with Tween-80 98 % of control

CCSCC1OC(n2cnc3c(N)ncnc32)CC1SCC (stereo unspecified)
inactive: [16] 104 % of control | [15] 104 % of control | [9] 98 % of control | [17] 111 % of control | [11] 89 % of control | [18] 101 % of control | [12] 92 % of control

NCCCCC(N)C(=O)Nc1ccc(Cc2ccc(NC(=O)C(N)CCCCN)cc2)cc1 (stereo unspecified)
inactive: [7] 103 % of control | [9] 100 % of control

O=C1CCC2(CC2)C(=O)O1
inactive: [19] 91 % of control | [20] 95 % of control | [21] 91 % of control

CCC(O)CN (stereo unspecified)
inactive: [19] 96 % of control and 107 % of control | [20] 96 % of control | [21] 95 % of control

CCCCOCCOC(=O)CC(/C=C(/C)CC(C)(C)C)C(=O)OCCOCCCC (stereo unspecified)
inactive: dose: 222.0 mg/kg/injection, schedule: Q01DX Z (ip), vehicle: methylcellulose (MC) 101 % of control | dose: 333.0 mg/kg/injection, schedule: Q01DX Z (ip), vehicle: methylcellulose (MC) 108 % of control | dose: 500.0 mg/kg/injection, schedule: Q01DX Z (ip), vehicle: methylcellulose (MC) 96 % of control

CNC(Cc1ccc(OCc2ccccc2)cc1)C(=O)NC(CC(C)C)C(=O)OC (stereo unspecified) (H-[NMeY](Bn)-Leu-OMe; configuration not given here)
inactive: [8] 97 % of control | [10] 100 % of control | [19] 104 % of control | [20] 102 % of control

Nc1cc(Nc2ccc(CCO)cc2)nc(N)n1
inactive: dose: 200.0 mg/kg/injection, schedule: Q01DX Z (ip), vehicle: methylcellulose (MC) 86 % of control

O=C(Nc1c(Cl)cc2c(c1Cl)Cc1cc([N+](=O)[O-])ccc1-2)C(Cl)Cl
inactive: [15] 98 % of control | [17] 102 % of control | [18] 98 % of control

COc1cc2ccnc(Cc3ccccc3)c2cc1OC
inactive: dose: 50.0 mg/kg/injection, schedule: Q01DX009 (ip), vehicle: saline with Tween-80 103 % of control | dose: 100.0 mg/kg/injection, schedule: Q01DX009 (ip), vehicle: saline with Tween-80 93 % of control and 94 % of control | [13] 102 % of control | dose: 200.0 mg/kg/injection, schedule: Q01DX009 (ip), vehicle: saline with Tween-80 88 % of control | [14] 100 % of control

Cc1ccc(S(=O)(=O)Nc2cccc3cnccc23)cc1
inactive: [16] 96 % of control | [15] 105 % of control | [17] 102 % of control | [18] 105 % of control
